Source: ChEMBL document CHEMBL1122983, “Synthesis and dopaminergic activity of (R)- and (S)-4-hydroxy-2-(di-n-propylamino)indan” (J Med Chem, 1985)

Target: Dopamine receptor (Homo sapiens) (UniProt P14416+P35462+P21918+P21917+P21728)
Conditions: Felis catus
Description: Inhibition of stimulation-induced tachycardia via the presynaptic dopamine receptors

| SMILES | ID50 |
| --- | --- |
| CCCN(CCC)[C@@H]1Cc2cccc(O)c2C1 | 7 nM |
| CCCN(CCC)[C@H]1Cc2cccc(O)c2C1 | 720 nM |
